The record followed here is US8227492B2, “Sulfoxamine derivatives as factor Xa inhibitors” (Cadila Healthcare Limited, priority 2007, dated 2012).

The target of assay [1] is Factor Xa (Homo sapiens, UniProt P00742). The assay can be described thus: In vitro Factor Xa inhibition, chromogenic assay. It counts as biochemical. The settings on record: 0.1 μM compound; for inhibition at 0.1 µM: read-out: % Factor Xa inhibition at 0.1 μM using chromogenic assay. Here is the method:
(§1) In vitro Factor Xa inhibitory activities were determined as per standard protocols and the results of representative compounds are provided in tables 1 and 2 below as proof of the efficacies of the novel class of compounds disclosed above.

Assay [2] relates to human plasma. The assay can be described thus: Prothrombin time doubling concentration (PTCT2) using human plasma. It counts as biochemical. Here is the method: as §1

What is called inhibition is the drop in the measured response relative to a control, in per cent.

Sequence of Factor Xa (P00742 235-488 limits assumed): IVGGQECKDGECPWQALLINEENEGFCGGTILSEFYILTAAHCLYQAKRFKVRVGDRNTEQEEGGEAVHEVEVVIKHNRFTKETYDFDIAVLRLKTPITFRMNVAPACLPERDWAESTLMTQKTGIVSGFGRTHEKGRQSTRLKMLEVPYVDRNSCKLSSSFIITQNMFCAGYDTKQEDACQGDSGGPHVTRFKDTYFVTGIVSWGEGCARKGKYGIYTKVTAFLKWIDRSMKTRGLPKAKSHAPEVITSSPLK
Sequence of Factor Xa (P00742 41-179 partner limits assumed): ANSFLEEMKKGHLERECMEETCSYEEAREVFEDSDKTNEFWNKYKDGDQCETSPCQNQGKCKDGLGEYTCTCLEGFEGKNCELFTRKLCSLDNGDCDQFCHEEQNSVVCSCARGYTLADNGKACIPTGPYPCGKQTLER

With `CS(=N)(=O)c1ccc(C(=O)Nc2ccc(Cl)cc2C(=O)Nc2ccc(Cl)cn2)cc1` (stereo not drawn) [Example 1, S-[4-(N-{2-[N-(5-chloro(2-pyridyl))carbamoyl]-4-chlorophenyl}carbamoyl)phenyl]-S-methyl Sulfoximide], the inhibition at 0.1 µM in assay [1] is 75%.

Take `CS(=N)(=O)c1ccccc1-c1ccc(C(=O)Nc2ccc(Cl)cc2C(=O)Nc2ccc(Cl)cn2)cc1` (stereo not drawn) [Example 4, S-(2-[4-(N-{2-[N-(5-chloro-2-pyridyl)carbamoyl]-4-chlorophenyl}carbamoyl)phenyl]-phenyl)-S-methyl sulfoximide]: the inhibition at 0.1 µM in assay [1] amounted to 93%. Further, the “PTCT2 (Conc. required to double the prothrombin time using human plasma)” value (“PTCT2” below) in assay [2] was 4.1 µM. Taken in the same sequence, the figures for `COc1cc(Cl)cc(C(=O)Nc2ccc(Cl)cn2)c1NC(=O)c1ccc(-c2ccccc2S(C)(=N)=O)cc1` (stereo not drawn) [Example 5, S-(2-[4-(N-{2-[N-(5-chloro-2-pyridyl)carbamoyl]-4-chloro-6-methoxyphenyl}carbamoyl)phenyl]-phenyl)-S-methyl Sulfoximide] were 95% and 0.69 µM. As to `CS(=O)(=O)N=S(C)(=O)c1ccccc1-c1ccc(C(=O)Nc2ccc(Cl)cc2C(=O)Nc2ccc(Cl)cn2)cc1` (stereo not drawn) [Example 14, S-(2-[4-(N-{2-[N-(5-chloro-2-pyridyl)carbamoyl]-4-chlorophenyl}carbamoyl)phenyl]-phenyl)-S-methyl-N-methanesulfonyl sulfoximide], the inhibition at 0.1 µM in assay [1] amounted to 84%. Take `CS(=O)(=NC(=O)c1ccncc1)c1ccccc1-c1ccc(C(=O)Nc2ccc(Cl)cc2C(=O)Nc2ccc(Cl)cn2)cc1` (stereo not drawn) [Example 24, S-(2-[4-(N-{2-[N-(5-chloro-2-pyridyl)carbamoyl]-4-chlorophenyl}carbamoyl)phenyl]-phenyl)-S-methyl-N-(4-pyridylcarbonyl)sulfoximide]: the inhibition at 0.1 µM in assay [1] was 85%.

As for `CS(=O)(=NC(=O)C1CCNCC1)c1ccccc1-c1ccc(C(=O)Nc2ccc(Cl)cc2C(=O)Nc2ccc(Cl)cn2)cc1` (stereo not drawn) [Example 26, S-(2-[4-(N-{2-[N-(5-chloro-2-pyridyl)carbamoyl]-4-chlorophenyl}carbamoyl)phenyl]-phenyl)-S-methyl-N-(4-piperidinylcarbonyl)sulfoximide], the inhibition at 0.1 µM in assay [1] came out at 69%.

For `CCN1CCC(C(=O)N=S(C)(=O)c2ccccc2-c2ccc(C(=O)Nc3ccc(Cl)cc3C(=O)Nc3ccc(Cl)cn3)cc2)CC1` (stereo not drawn) [Example 28, S-(2-[4-(N-{2-[N-(5-chloro-2-pyridyl)carbamoyl]-4-chlorophenyl}carbamoyl)phenyl]-phenyl)-S-methyl-N-(1-ethyl-piperidine-4-carbonyl)sulfoximide], the inhibition at 0.1 µM in assay [1] came to 82%. Take `COc1ccc(NC(=O)c2ccc(S(C)(=O)=NC(=O)CN(C)C)cc2)c(C(=O)Nc2ccc(Cl)cn2)c1` (stereo not drawn) [Example 40, S-[4-(N-{2-[N-(5-chloro(2-pyridyl))carbamoyl]-4-methoxyphenyl}carbamoyl)phenyl]-S-methyl-N-(2-dimethylamino-acetyl)sulfoximide]: in assay [1], the inhibition at 0.1 µM is 56%. In assay [2], the “PTCT2” value came out at 1.2 µM. In the same order, the values of `CN(C)CC(=O)N=S(C)(=O)c1ccccc1-c1ccc(C(=O)Nc2ccc(Cl)cc2C(=O)Nc2ccc(Cl)cn2)cc1` (stereo not drawn) [Example 41, S-(2-[4-(N-{2-[N-(5-chloro-2-pyridyl)carbamoyl]-4-chlorophenyl}carbamoyl)phenyl]-phenyl)-S-methyl-N-(2-dimethylamino-acetyl)sulfoximide] are 95% and 1.9 µM.

On to `CCN(CC)CC(=O)N=S(C)(=O)c1ccc(C(=O)Nc2ccc(Cl)cc2C(=O)Nc2ccc(Cl)cn2)cc1` (stereo not drawn) [Example 42, S-[4-(N-{2-[N-(5-chloro(2-pyridyl))carbamoyl]-4-chlorophenyl}carbamoyl)phenyl]-S-methyl-N-(2-diethylamino-acetyl)sulfoximide], for which, in assay [1], the inhibition at 0.1 µM is 70%. In addition, the “PTCT2” value in assay [2] is 0.7 µM. For `CCN(CC)CC(=O)N=S(C)(=O)c1ccccc1-c1ccc(C(=O)Nc2ccc(Cl)cc2C(=O)Nc2ccc(Cl)cn2)cc1` (stereo not drawn) [Example 43, S-(2-[4-(N-{2-[N-(5-chloro-2-pyridyl)carbamoyl]-4-chlorophenyl}carbamoyl)phenyl]-phenyl)-S-methyl-N-(2-diethylamino-acetyl)sulfoximide], the inhibition at 0.1 µM in assay [1] came to 79%.

With `CS(=O)(=NC(=O)CN1CCCC1)c1ccc(C(=O)Nc2ccc(Cl)cc2C(=O)Nc2ccc(Cl)cn2)cc1` (stereo not drawn) [Example 50, S-[4-(N-{2-[N-(5-chloro(2-pyridyl))carbamoyl]-4-chlorophenyl}carbamoyl)phenyl]-S-methyl-N-[(2-pyrrolidin-1-yl)-acetyl]sulfoximide], in assay [1], the inhibition at 0.1 µM was 64%. In addition, the “PTCT2” value in assay [2] is 0.68 µM. `CS(=O)(=NC(=O)CN1CCCCC1)c1ccc(C(=O)Nc2ccc(Cl)cc2C(=O)Nc2ccc(Cl)cn2)cc1` (stereo not drawn) [Example 52, S-[4-(N-{2-[N-(5-chloro(2-pyridyl))carbamoyl]-4-chlorophenyl}carbamoyl)phenyl]-S-methyl-N-[(2-piperidin-1-yl)-acetyl]sulfoximide]: in assay [1], the inhibition at 0.1 µM was 60%. Regarding `CS(=O)(=NC(=O)CN1CCCCC1)c1ccccc1-c1ccc(C(=O)Nc2ccc(Cl)cc2C(=O)Nc2ccc(Cl)cn2)cc1` (stereo not drawn) [Example 53, S-(2-[4-(N-{2-[N-(5-chloro-2-pyridyl)carbamoyl]-4-chlorophenyl}carbamoyl)phenyl]-phenyl)-S-methyl-N-[(2-piperidin-1-yl)-acetyl]sulfoximide], the inhibition at 0.1 µM in assay [1] was found to be 79%.

As for `CCN(CC)CCN=S(C)(=O)c1ccc(C(=O)Nc2ccc(Cl)cc2C(=O)Nc2ccc(Cl)cn2)cc1` (stereo not drawn) [Example 74, S-[4-(N-{2-[N-(5-chloro(2-pyridyl))carbamoyl]-4-chlorophenyl}carbamoyl)phenyl]-S-methyl-N-(2-(diethylamino)ethyl)sulfoximide], the inhibition at 0.1 µM in assay [1] amounted to 77%. The “PTCT2” value in assay [2] amounted to 1.23 µM. In the case of `CS(=O)(=NCCN1CCCC1)c1ccc(C(=O)Nc2ccc(Cl)cc2C(=O)Nc2ccc(Cl)cn2)cc1` (stereo not drawn) [Example 75, S-[4-(N-{2-[N-(5-chloro(2-pyridyl))carbamoyl]-4-chlorophenyl}carbamoyl)phenyl]-S-methyl-N-(2-(pyrrolidin-1-yl)ethyl)sulfoximide], in assay [1], the inhibition at 0.1 µM is 74%. The “PTCT2” value in assay [2] is 0.98 µM. Take `CN(C)CCN=S(C)(=O)c1ccc(C(=O)Nc2ccc(Cl)cc2C(=O)Nc2ccc(Cl)cn2)cc1` (stereo not drawn) [Example 76, S-[4-(N-{2-[N-(5-chloro(2-pyridyl))carbamoyl]-4-chlorophenyl}carbamoyl)phenyl]-S-methyl-N-[2-dimethylamino-ethyl]sulfoximide]: in assay [1], the inhibition at 0.1 µM amounted to 66%. In addition, the “PTCT2” value in assay [2] is 1.14 µM.

“S-(2-[4-(N-{2-[N-(5-chloro-2-pyridyl)carbamoyl]-4-chlorophenyl}carbamoyl)phenyl]-phenyl)-S-methyl-N-[2-(4-aminopiperidinyl)-acetyl]sulfoximide [Example 56]”: the “% Factor Xa inhibition at 0.1 μM using chromogenic assay” value in assay [1] is reported as 81%.
